Reference: US20100256214A1, “EPH RECEPTOR LIGANDS AND METHODS OF USE” (Burnham Institute for Medical Research, priority 2009, published 2010)

Key:
EGF receptor = EGF receptor phosphorylation in COS7 cells; type: cell-based; conditions: COS7 cells stimulated with EGF
EphA and EphB receptors = assay: ELISA, ephrin-A5 AP / ephrin-B2 AP binding to immobilized EphA and EphB receptor Fc fusion proteins
Experimental: (§1) FIGS. 3A and 3B. A. Ephrin-A5 AP binding to immobilized EphA receptor Fc fusion proteins and ephrin-B2 AP binding to immobilized EphB receptor Fc fusion proteins were measured in the presence of the indicated concentrations of compounds 1 and 2. […] Error bars indicate standard error from 3 measurements. B. IC50 values for inhibition of EphA4 AP and EphA2 AP binding to the indicated immobilized ephrins by compounds 1 and 2.
(§2) ELISA Assays and K, Determination—Protein A-coated wells (Pierce Biotecnology, Rockford, Ill.) were used to immobilize ephrin Fc fusion proteins (R&D Systems, Minneapolis, Minn.). Compounds at different concentrations were incubated with EphA4 AP (Cheng and Flanagan, (1994) Cell 79(1), 157-168) or EphA2 AP (Koolpe et al. (2002) J Biol Chem 277(49), 46974-46979) for 3 hours. Alternatively, Eph receptor Fc fusion proteins were immobilized on protein A-coated wells and ephrin-A5 AP (Menzel et al. (2001) Developmental Biology 230(1), 74-88) or ephrin-B2 AP (GeneHunter, Nashville, Tenn.) were added with the compounds. The amount of bound AP-fusion protein was quantified using pNPP as the substrate. Alkaline phosphatase activity from wells with Fc only was subtracted as background. […]

EphA2 [1] = assay: EphA2 tyrosine phosphorylation in COS7 cells; type: cell-based; conditions: for tyrosine phosphorylation of endogenous EphA2: COS7 cells stimulated with ephrin-A1 Fc
Experimental: FIGS. 6A-6F. A. HT22 neuronal cells pretreated with the indicated concentrations of compounds 1 or 2 for 15 min were stimulated with 0.5 μg/mL ephrin-A5 Fc (+) or Fc as a control (−) for 20 min in the continued presence of the compounds. EphA4 immunoprecipitates were probed with anti-phosphotyrosine antibody (PTyr) and reprobed for EphA4. C indicates immunoprecipitations performed with control antibodies from non-immunized rabbits. […] Error bars represent the standard error from 4 experiments for compound 1 and 3 experiments for compound 2. […] C. COS7 cells pretreated with the indicated concentrations of compounds 1 or 2 for 15 min were stimulated with 0.1 μg/mL ephrin-A1 Fc or Fc as a control in the continued presence of the compounds. EphA2 immunoprecipitates were probed with anti-phosphotyrosine antibody (PTyr) and reprobed for EphA2. C indicates immunoprecipitations performed with control antibodies. […] Error bars represent the standard error from 2 experiments. Statistical analyses were performed as in (B). HUVE cells were left unstimulated or stimulated with TNFα for 2 hours in the presence of 400 μM compound 1. Duplicate untreated samples are shown. C indicates immunoprecipitations performed with control antibodies. EphA2 immunoprecipitates were probed with anti-phosphotyrosine antibody (PTyr) and reprobed for EphA2. Levels of EphA2 phosphorylation quantified from immunoblots and normalized to the amount of immunoprecipitated EphA2 were also performed. […] The same protocol described in (C) was used, except that COS7 cells were stimulated with 0.5 μg/mL of ephrin-B2 Fc and the EphB2 receptor was immunoprecipitated. F. COS7 cells pretreated with the indicated concentrations of compounds 1 or 2 were stimulated with EGF (+) or left unstimulated (−). Lysates were probed with anti-phosphotyrosine antibody (PTyr) and reprobed for the EGF receptor.
Measurement of Receptor Tyrosine Phosphorylation in Cells—HT22 neuronal cells, which endogenously express EphA4, are derived from immortalized mouse hippocampal neurons (Li et al. (1997) Neuron 19(2), 453-463). COST cells, which endogenously express EphA2, EphB2 and the EGF receptor (EGFR), were obtained from ATCC. Both cell lines were grown in Dulbecco's Modified Eagle's Medium (DMEM) (Mediatech, Inc, Herndon, Va.) with 10% fetal bovine serum (FBS) (Hyclone, Logan, Utah) and Pen/Strep. For EphA4 immunoprecipitations, HT22 cells were serum-starved overnight in 0.5% FBS in DMEM and incubated for 15 min with the compounds or DMSO as a control. The cells were then stimulated with 0.5 μg/mL ephrin-A5 Fc, ephrin-A4 Fc or Fc for 20 min in the continued presence of the compounds. […] The protein concentration was calculated using the BCA protein assay kit (Pierce Biotecnology, Rockford, Ill.). […]

[2] = molecular target: T1, EphA4 ligand-binding domain (Homo sapiens, UniProt P54764, C204A); assay: Isothermal titration calorimetry with EphA4 ligand-binding domain; conditions: ITC; for Ka / Kb: 10 mM phosphate buffer pH 6.3, 25° C.
T1 construct: His-tagged fusion partner of modified pET32a (N, cleaved yes); made in house; host or cells: E. coli Rosetta-gami (DE3)
T1 sequence (P54764 29-209 C204A): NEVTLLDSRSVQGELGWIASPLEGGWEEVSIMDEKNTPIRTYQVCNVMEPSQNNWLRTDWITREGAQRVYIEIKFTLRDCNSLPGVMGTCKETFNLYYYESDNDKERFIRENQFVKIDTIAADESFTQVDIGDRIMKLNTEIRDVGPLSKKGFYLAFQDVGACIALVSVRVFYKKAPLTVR
Experimental: The free Cys176 in this extra tail was mutated to Ala by use of the site-directed mutagenesis kit (Stratagene) to avoid the formation of non-native disulfide bridges.
Titrations were conducted in 10 mM phosphate buffer (pH 6.3) at 25° C. […] The powders of the two compounds were weighted and then dissolved in 10 mM phosphate buffer with the final pH values adjusted to 6.3. The EphA4 receptor at a concentration of 70 μM was placed in a 1.8 ml sample cell while the compounds at a concentration of 2 mM were loaded into a 300 μL syringe. The samples were degassed for 15 min to remove bubbles before the titrations were initiated. Control experiments with the same parameter settings were also performed for the two compounds without EphA4, to subtract the effects due to sample dilution. To obtain thermodynamic binding parameters, the titration data after subtracting the values obtained from the control experiments were fit to a single binding site model using the built-in software ORIGIN version 5.0 (Microcal Software Inc.).

EphA2 [3] = molecular target: EphA2 (Homo sapiens, UniProt P29317); assay: EphA2 tyrosine phosphorylation in HUVE endothelial cells treated with TNFα; type: cell-based; parameters: endogenous in cells
EphA2 (Homo sapiens, UniProt P29317), sequence (P29317 24-976): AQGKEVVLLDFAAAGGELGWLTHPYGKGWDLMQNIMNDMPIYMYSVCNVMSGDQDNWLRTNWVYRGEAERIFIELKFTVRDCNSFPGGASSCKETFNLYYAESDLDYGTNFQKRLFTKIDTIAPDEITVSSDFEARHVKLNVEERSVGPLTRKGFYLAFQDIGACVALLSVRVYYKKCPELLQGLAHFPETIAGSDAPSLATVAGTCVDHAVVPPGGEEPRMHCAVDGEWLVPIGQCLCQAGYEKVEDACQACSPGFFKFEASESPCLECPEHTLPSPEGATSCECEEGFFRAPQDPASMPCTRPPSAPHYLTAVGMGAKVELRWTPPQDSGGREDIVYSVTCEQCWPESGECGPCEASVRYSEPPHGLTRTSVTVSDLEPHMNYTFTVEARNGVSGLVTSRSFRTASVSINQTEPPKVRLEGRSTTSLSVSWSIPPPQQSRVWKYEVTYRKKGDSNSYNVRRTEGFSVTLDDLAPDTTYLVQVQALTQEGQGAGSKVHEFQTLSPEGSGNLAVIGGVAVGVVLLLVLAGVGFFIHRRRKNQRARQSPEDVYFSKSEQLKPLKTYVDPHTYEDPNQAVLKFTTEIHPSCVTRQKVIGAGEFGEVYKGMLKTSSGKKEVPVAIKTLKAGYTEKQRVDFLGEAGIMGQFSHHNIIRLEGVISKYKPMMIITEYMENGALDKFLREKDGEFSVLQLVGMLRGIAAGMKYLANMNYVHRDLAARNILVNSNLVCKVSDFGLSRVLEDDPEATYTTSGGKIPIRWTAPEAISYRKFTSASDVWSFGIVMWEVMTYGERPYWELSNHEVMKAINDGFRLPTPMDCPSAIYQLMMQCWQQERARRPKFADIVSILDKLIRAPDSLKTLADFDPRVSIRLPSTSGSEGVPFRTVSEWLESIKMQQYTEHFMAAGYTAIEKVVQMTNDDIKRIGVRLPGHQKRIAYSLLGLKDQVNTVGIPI
Experimental: FIGS. 6A-6F. A. HT22 neuronal cells pretreated with the indicated concentrations of compounds 1 or 2 for 15 min were stimulated with 0.5 μg/mL ephrin-A5 Fc (+) or Fc as a control (−) for 20 min in the continued presence of the compounds. EphA4 immunoprecipitates were probed with anti-phosphotyrosine antibody (PTyr) and reprobed for EphA4. C indicates immunoprecipitations performed with control antibodies from non-immunized rabbits. […] Error bars represent the standard error from 4 experiments for compound 1 and 3 experiments for compound 2. […] C. COS7 cells pretreated with the indicated concentrations of compounds 1 or 2 for 15 min were stimulated with 0.1 μg/mL ephrin-A1 Fc or Fc as a control in the continued presence of the compounds. EphA2 immunoprecipitates were probed with anti-phosphotyrosine antibody (PTyr) and reprobed for EphA2. C indicates immunoprecipitations performed with control antibodies. […] Levels of EphA2 phosphorylation quantified from immunoblots and normalized to the amount of immunoprecipitated EphA2 were also performed. […]
Measurement of Receptor Tyrosine Phosphorylation in Cells—HT22 neuronal cells, which endogenously express EphA4, are derived from immortalized mouse hippocampal neurons (Li et al. (1997) Neuron 19(2), 453-463). […] The protein concentration was calculated using the BCA protein assay kit (Pierce Biotecnology, Rockford, Ill.). […]

EphA4 = EphA4 (Mus musculus, UniProt Q03137); assay: ELISA, EphA4 AP binding to immobilized ephrin Fc fusion proteins; parameters: made in house; conditioned culture medium used
EphA4, sequence (Q03137 20-547 limits assumed): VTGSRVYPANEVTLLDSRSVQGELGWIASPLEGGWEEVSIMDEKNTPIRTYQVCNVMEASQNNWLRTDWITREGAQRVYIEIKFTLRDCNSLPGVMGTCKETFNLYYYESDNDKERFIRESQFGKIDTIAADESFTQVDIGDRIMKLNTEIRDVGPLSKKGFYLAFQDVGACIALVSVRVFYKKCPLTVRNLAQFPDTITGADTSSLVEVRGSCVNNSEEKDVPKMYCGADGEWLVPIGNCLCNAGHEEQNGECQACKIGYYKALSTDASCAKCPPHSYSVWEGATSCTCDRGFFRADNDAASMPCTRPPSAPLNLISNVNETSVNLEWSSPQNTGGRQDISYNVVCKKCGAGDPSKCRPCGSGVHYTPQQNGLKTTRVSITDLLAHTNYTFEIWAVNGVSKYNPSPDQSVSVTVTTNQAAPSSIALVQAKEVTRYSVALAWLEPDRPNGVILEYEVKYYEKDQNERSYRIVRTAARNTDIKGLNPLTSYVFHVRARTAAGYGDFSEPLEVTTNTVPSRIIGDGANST
Experimental: as §1, §2

## Cc1ccc(C)n1-c1ccc(C(=O)O)c(O)c1 [compound 1, 4-(2,5-dimethyl-pyrrol-1-yl)-2-hydroxy-benzoic acid]
EGF receptor
  phosphorylation of the EGF receptor: did not inhibit
EphA and EphB receptors
  selectivity of inhibition of ephrin binding among EphA and EphB receptors: efficiently inhibited ephrin binding only to EphA4 and EphA2
EphA2 [1]
  ephrin-dependent degradation of EphA2: prevented
  tyrosine phosphorylation of endogenous EphA2: inhibited
[2]
  Kd: 20.4 µM
  Stoichiometry: 1.000 ± 0
  ΔH, enthalpy change of binding: −1,001 cal
  ΔS: 18.11 cal/mol*K
  Ka: 48930 M⁻¹
  Kb: 20.4 µM
EphA2 [3]
  tyrosine phosphorylation of endogenous EphA2: inhibited
EphA4
  inhibition of binding of different ephrin ligands to EphA4: inhibited binding of most ephrin ligands to EphA4, except for ephrin-A4 and ephrin-B2

## Cc1ccc(C)n1-c1ccc(O)c(C(=O)O)c1 [compound 2, 5-(2,5 dimethyl-pyrrol-1-yl)-2-hydroxy-benzoic acid]
EGF receptor
  phosphorylation of the EGF receptor: did not inhibit
EphA and EphB receptors
  selectivity of inhibition of ephrin binding among EphA and EphB receptors: efficiently inhibited ephrin binding only to EphA4 and EphA2
EphA2 [1]
  ephrin-dependent degradation of EphA2: prevented
  tyrosine phosphorylation of endogenous EphA2: inhibited
[2]
  Kd: 26.4 µM
  Stoichiometry: 1.000 ± 0
  ΔH, enthalpy change of binding: -237 cal
  ΔS: 20.15 cal/mol*K
  Ka: 37850 M⁻¹
  Kb: 26.4 µM
EphA2 [3]
  tyrosine phosphorylation of endogenous EphA2: inhibited
EphA4
  inhibition of binding of different ephrin ligands to EphA4: inhibited binding of most ephrin ligands to EphA4, except for ephrin-A4 and ephrin-B2
